# Earlier results in patent US11903950B2, “BCL-2 inhibitors” (Newave Pharmaceutical Inc., priority 2018, dated 2024).
# Key:
# circulating platelets = settings: clinical trial, patients
# [1] = test system: xenograft models of small-cell lung cancer and acute lymphoblastic leukemia; settings: oral administration, alone
smiles,measurement,setting,value
CC1(C)CCC(c2ccc(Cl)cc2)=C(CN2CCN(c3ccc(C(=O)NS(=O)(=O)c4ccc(N[C@H](CCN5CCOCC5)CSc5ccccc5)c(S(=O)(=O)C(F)(F)F)c4)cc3)CC2)C1 [ABT-263],number of circulating platelets,circulating platelets,"rapid, concentration-dependent decrease in the number of circulating platelets"
same,tumor regression,[1],complete tumor regressions
